Assay results published in patent US10407381B2 (THE BOARD OF TRUSTEES OF THE UNIVERSITY OF ILLINOIS, priority 2015, dated 2019).
Like-named read-outs stand apart in the source and are kept apart here.

Tests used:
5-HT2B = 5-HT2B (Homo sapiens, UniProt P41595); assay: Calcium flux (FLIPR) assay, human 5-HT2B stably expressed in HEK-293 (Flp-In-293) cells; settings: human 5-HT2B in HEK-293 cells; for EC50: EC50, nM 5-HT2B, NA = no activity at 10 μM; for Emax, % 5-HT 5-HT2B: normalized to 5-HT
human 5-HT2C-INI = target: T1, human 5-HT2C-INI (Homo sapiens, UniProt P28335); assay: Calcium flux (FLIPR) assay, human 5-HT2C-INI stably expressed in HEK-293 (Flp-In-293) cells; settings: human 5-HT2C-INI in HEK-293 cells, FLIPR; for EC50: NA = no activity at 10 μM; for Emax, % 5-HT 5-HT2C: normalized to 5-HT
T1 sequence (P28335 33-458): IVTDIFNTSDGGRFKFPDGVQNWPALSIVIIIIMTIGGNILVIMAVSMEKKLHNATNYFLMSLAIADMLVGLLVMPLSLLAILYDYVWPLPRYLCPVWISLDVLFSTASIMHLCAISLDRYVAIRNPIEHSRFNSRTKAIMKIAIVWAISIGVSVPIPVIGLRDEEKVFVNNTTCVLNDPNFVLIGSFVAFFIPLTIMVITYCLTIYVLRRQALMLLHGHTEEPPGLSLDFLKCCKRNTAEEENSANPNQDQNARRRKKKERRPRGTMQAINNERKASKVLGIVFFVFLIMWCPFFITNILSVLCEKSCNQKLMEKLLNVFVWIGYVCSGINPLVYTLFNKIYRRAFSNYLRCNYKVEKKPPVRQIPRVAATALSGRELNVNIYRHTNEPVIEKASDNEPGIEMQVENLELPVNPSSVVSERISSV

Sequence of 5-HT2B (P41595 whole entry): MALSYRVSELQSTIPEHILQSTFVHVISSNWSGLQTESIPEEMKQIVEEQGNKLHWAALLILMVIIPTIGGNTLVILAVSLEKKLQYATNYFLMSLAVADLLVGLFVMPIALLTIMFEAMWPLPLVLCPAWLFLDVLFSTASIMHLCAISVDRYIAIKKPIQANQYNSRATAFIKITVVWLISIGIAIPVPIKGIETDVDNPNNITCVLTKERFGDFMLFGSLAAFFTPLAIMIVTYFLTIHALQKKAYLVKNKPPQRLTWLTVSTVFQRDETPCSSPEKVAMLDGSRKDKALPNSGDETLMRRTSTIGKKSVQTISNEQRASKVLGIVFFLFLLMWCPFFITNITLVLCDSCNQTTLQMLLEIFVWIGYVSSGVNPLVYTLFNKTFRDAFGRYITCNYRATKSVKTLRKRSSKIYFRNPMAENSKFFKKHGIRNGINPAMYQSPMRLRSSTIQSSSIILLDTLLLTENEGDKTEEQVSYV

SMILES	EC50 (5-HT2B)	Emax, % 5-HT 5-HT2B (5-HT2B)	EC50 (human 5-HT2C-INI; EC50, nM 5-HT2C)	Emax, % 5-HT 5-HT2C (human 5-HT2C-INI)	EC50 (human 5-HT2C-INI; read-out: EC50, nM 5-HT2C)
NCC1CC1c1cc(Cl)c(F)cc1OCCF (single isomer, unassigned; (+)) [(+)-Example 4, (+)-(2-(5-Chloro-4-fluoro-2-(2-fluoroethoxy)phenyl)cyclopropyl)methanamine]	506 nM	(39%) % 5-HT	24 nM	(87%) % 5-HT	–
C=CCOc1cc(F)c(Cl)cc1C1CC1CN (single isomer, unassigned; (+)) [(+)-Example 5, (+)-(2-(2-(Allyloxy)-5-chloro-4-fluorophenyl)cyclopropyl)methanamine]	1000 nM	(44%) % 5-HT	42 nM	(87%) % 5-HT	–
CCCOc1ccc(Cl)cc1C1CC1CN (single isomer, unassigned; (+)) [(+)-Example 12, (+)-(2-(5-Chloro-2-propoxyphenyl)cyclopropyl)methanamine]	3440 nM	(25%) % 5-HT	103 nM	(72%) % 5-HT	–
COCCOc1ccc(Cl)cc1C1CC1CN (single isomer, unassigned; (+)) [(+)-Example 17, (+)-(2-(5-Chloro-2-(2-methoxyethoxy)phenyl)cyclopropyl)methanamine]	–	–	183 nM	(8%) % 5-HT	–
CSCCOc1ccc(Cl)cc1C1CC1CN (single isomer, unassigned; (+)) [(+)-Example 18, (+)-(2-(5-Chloro-2-(2-(methylthio)ethoxy)phenyl)cyclopropyl)methanamine]	–	–	244 nM	(24%) % 5-HT	–
NCC1CC1c1cc(Cl)ccc1OCCCF (single isomer, unassigned; (+)) [(+)-Example 20, (+)-(2-(5-Chloro-2-(3-fluoropropoxy)phenyl)cyclopropyl)methanamine]	4910 nM	(22%) % 5-HT	206 nM	(60%) % 5-HT	–
C=CCOc1ccc(Cl)cc1C1CC1CN (single isomer, unassigned; (+)) [(+)-Example 23, (+)-(2-(2-(Allyloxy)-5-chlorophenyl)cyclopropyl)methanamine]	2210 nM	(32%) % 5-HT	60 nM	(80%) % 5-HT	–
NCC1CC1c1c(OCCF)ccc(Cl)c1F (single isomer, unassigned; (+)) [(+)-Example 31, (+)-(2-(3-Chloro-2-fluoro-6-(2-fluoroethoxy)phenyl)cyclopropyl)methanamine]	–	(15%) % 5-HT	71 nM	(86%) % 5-HT	–
C=CCOc1cc(Cl)c(Cl)cc1C1CC1CN (single isomer, unassigned; (+)) [(+)-Example 35, (+)-(2-(2-(Allyloxy)-4,5-dichlorophenyl)cyclopropyl)methanamine]	–	–	61 nM	(88%) % 5-HT	–
C=CCOc1ccc(Cl)c(Cl)c1C1CC1CN (single isomer, unassigned; (+)) [(+)-Example 39]	–	–	–	(70%) % 5-HT	165 nM
NCC1CC1c1cc(F)c(F)cc1OCCF (single isomer, unassigned; (+)) [(+)-Example 42, (+)-(2-(4,5-Difluoro-2-(2-fluoroethoxy)phenyl)cyclopropyl)methanamine]	–	–	7.3 nM	(95%) % 5-HT	–
NCC1CC1c1c(OCCF)ccc(F)c1F (single isomer, unassigned; (+)) [(+)-Example 47, (+)-(2-(2,3-Difluoro-6-(2-fluoroethoxy)phenyl)cyclopropyl)methanamine]	–	–	25 nM	(95%) % 5-HT	–
C=CCOc1ccc(F)c(F)c1C1CC1CN (single isomer, unassigned; (+)) [(+)-Example 49, (+)-(2-(6-(Allyloxy)-2,3-difluorophenyl)cyclopropyl)methanamine]	3340 nM	(35%) % 5-HT	36 nM	(100%) % 5-HT	–
NCC1CC1c1c(OCCF)ccc(F)c1Cl (single isomer, unassigned; (+)) [(+)-Example 52, (+)-(2-(2-Chloro-3-fluoro-6-(2-fluoroethoxy)phenyl)cyclopropyl)methanamine]	–	–	49 nM	(86%) % 5-HT	–
C=CCOc1ccc(F)c(Cl)c1C1CC1CN (single isomer, unassigned; (+)) [(+)-Example 53, (+)-(2-(6-(Allyloxy)-2-chloro-3-fluorophenyl)cyclopropyl)methanamine]	–	–	96 nM	(92% 5-HT	–
NCC1CC1c1cc(Cl)c(F)cc1OCCF (single isomer, unassigned; (-)) [(−)-Example 4, (−)-(2-(5-Chloro-4-fluoro-2-(2-fluoroethoxy)phenyl)cyclopropyl)methanamine]	2520 nM	(26%) % 5-HT	776 nM	(70%) % 5-HT	–
C=CCOc1cc(F)c(Cl)cc1C1CC1CN (single isomer, unassigned; (-)) [(−)-Example 5, (−)-(2-(2-(Allyloxy)-5-chloro-4-fluorophenyl)cyclopropyl)methanamine]	1960 nM	(22%) % 5-HT	308 nM	(77%) % 5-HT	–
C#CCOc1cc(F)c(Cl)cc1C1CC1CN (single isomer, unassigned; (-)) [(−)-Example 6, (−)-(2-(5-Chloro-4-fluoro-2-(prop-2-yn-1-yloxy)phenyl)cyclopropyl)methanamine]	4210 nM	(33%) % 5-HT	117 nM	(92%) % 5-HT	–
CCCOc1ccc(F)cc1C1CC1CN (single isomer, unassigned; (-)) [(−)-Example 7, (−)-(2-(5-Fluoro-2-propoxyphenyl)cyclopropyl)methanamine]	735 nM	(11%) % 5-HT	296 nM	(80%) % 5-HT	–
C=C(F)COc1ccc(F)cc1C1CC1CN (single isomer, unassigned; (-)) [(−)-Example 9, (−)-(2-(5-Fluoro-2-((2-fluoroallyl)oxy)phenyl)cyclopropyl)methanamine]	–	–	985 nM	(62%) % 5-HT	–
CCOc1ccc(Cl)cc1C1CC1CN (single isomer, unassigned; (-)) [(−)-Example 11, (−)-(2-(5-Chloro-2-ethoxyphenyl)cyclopropyl)methanamine]	2310 nM	(26%) % 5-HT	646 nM	(72%) % 5-HT	–
CCCOc1ccc(Cl)cc1C1CC1CN (single isomer, unassigned; (-)) [(−)-Example 12, (−)-(2-(5-Chloro-2-propoxyphenyl)cyclopropyl)methanamine]	3000 nM	(21%) % 5-HT	1230 nM	(31%) % 5-HT	–
CC(C)Oc1ccc(Cl)cc1C1CC1CN (single isomer, unassigned; (-)) [(−)-Example 14, (−)-(2-(5-Chloro-2-isopropoxyphenyl)cyclopropyl)methanamine]	5660 nM	(19%) % 5-HT	2480 nM	(37%) % 5-HT	–
COCCOc1ccc(Cl)cc1C1CC1CN (single isomer, unassigned; (-)) [(−)-Example 17, (−)-(2-(5-Chloro-2-(2-methoxyethoxy)phenyl)cyclopropyl)methanamine]	5300 nM	(32%) % 5-HT	667 nM	(45%) % 5-HT	–
CSCCOc1ccc(Cl)cc1C1CC1CN (single isomer, unassigned; (-)) [(−)-Example 18, (−)-(2-(5-Chloro-2-(2-(methylthio)ethoxy)phenyl)cyclopropyl)methanamine]	–	–	1760 nM	(11%) % 5-HT	–
C=C(C)COc1ccc(Cl)cc1C1CC1CN (single isomer, unassigned; (-)) [(−)-Example 24, (−)-(2-(5-Chloro-2-((2-methylallyl)oxy)phenyl)cyclopropyl)methanamine]	6090 nM	(39%) % 5-HT	–	–	–
C=C(F)COc1ccc(Cl)cc1C1CC1CN (single isomer, unassigned; (-)) [(−)-Example 25, (−)-(2-(5-Chloro-2-((2-fluoroallyl)oxy)phenyl)cyclopropyl)methanamine]	6880 nM	(33%) % 5-HT	–	–	–
NCC1CC1c1cc(F)c(F)cc1OCCF (single isomer, unassigned; (-)) [(−)-Example 42, (−)-(2-(4,5-Difluoro-2-(2-fluoroethoxy)phenyl)cyclopropyl)methanamine]	–	–	772 nM	(73%) % 5-HT	–
CCCOc1ccc(F)c(F)c1C1CC1CN (single isomer, unassigned; (-)) [(−)-Example 48, (−)-(2-(2,3-Difluoro-6-propoxyphenyl)cyclopropyl)methanamine]	–	–	357 nM	(68%) % 5-HT	–
